Measurements published in patent US7371364B2, “Cyclic peptide and imaging compound compositions and uses for targeted imaging and therapy” (Board of Regents, The University of Texas System, priority 2003, dated 2008).
Positions of bridges follow the written chain, without caps; N, C: chain ends. No end group written: not given here.

Tests used:
[1] = test system: KS1767 tumors; experiment: In vivo NIR imaging of subcutaneous KS1767 tumors with RGD imaging agent; parameters: species or system mice; details: subcutaneous KS1767 tumors, i.v. 6 nmol/mouse, image 24 hours after injection
Description: Cy5.5-c(KRGDf; SEQ ID NO. 3) may be used in near infrared (NIR) imaging. Mice inoculated with KS1767 were used for in vivo NIR studies. The mice were four to six week-old athymic nude mice (18-22 g, Harlan Sprague Dawley, Inc. Indianapolis, Ind.) which were housed 5 per cage and fed with sterilized pellet chow (Harlan Sprague Dawley) and sterilized water. The animals were maintained in a pathogen-free mouse colony in the Department of Veterinary Medicine at the University of Texas M.D. Anderson Cancer Center. All experiments were performed in accordance with the guidelines of the Institutional Animal Care and Use Committee.
Tumor cells for use in the animals were harvested near confluence by incubation with 0.05% trypsin-EDTA. Cells were pelleted by centrifugation at 450×g for 5 minutes and resuspended in sterile PBS. […] cells/animal were implanted subcutaneously into the chest wall or hind legs of the mice. Imaging studies were performed when tumors reached 4-6 mm in average diameter.
In vivo fluorescence imaging was accomplished by illuminating the animal with light from a laser diode (35 mW) expanded to an approximate 8 cm diameter circular area. The fluorescent light re-emitted from the animal was collected by an image intensifier (model FS9910C, ITT Night Vision, Roanoke, Va.) lens-coupled to a CCD camera (model CH350, Photometrics, Tucson, Ariz.). The imaging was designed so that the field of view could be varied from 3×3 cm to over 12×12 cm by varying the image distance of the 50 mm lens used to focus the image onto the photocathode of the intensifier. The lens was fitted with a holographic notch-plus filter (660 nm center wavelength; Kaiser Optical Systems, Inc., Ann Arbor, Mich.) and a bandpass filter (710 nm center wavelength) to reject back-scattered and reflected excitation photons. Image acquisition was accomplished using V++ software (Digital Optics, Auckland, New Zealand) and the obtained images were stored in uncompressed tagged image file format (tiff). Data processing and analysis were accomplished using Matlab software (The MathWorks, Inc., Natick, Mass.). For all imaging sessions, the image acquisition parameters were kept constant, and each image required 800 ms of camera integration.
For dynamic in vivo fluorescence imaging, mice were anesthetized with an i.p. injection of 50 mg/kg pentobarbital, and a catheter was placed in the tail vein for i.v. injection of NIR dyes. A white-light image of the animal was obtained using a low-power lamp as a white light source with holographic and interference filters removed. Fluorescence images were then acquired as a function of time following administration of Cy5.5 (6 nmol per/mouse) or Cy5.5-c(KRGDf; SEQ ID NO. 3) (6 nmol per/mouse). […]

[2] = test system: SKBr-3 tumors; experiment: In vivo NIR fluorescent imaging with HWG imaging agent; parameters: species or system mice; details: 4 days after i.v. injection, 15 nmol per mouse
Experimental: Four to six week-old athymic nude mice (18-22 g, Harlan Sprague Dawley, Inc., Indianapolis, Ind.) were housed 5 per cage with sterilized pet chow (Harlan Sprague Dawley) and sterilized water. Animals were maintained in a pathogen-free mouse colony in the Department of Veterinary Medicine at the University of Texas M.D. Anderson Cancer Center. All experiments were performed in accordance with the guidelines of the Institutional Animal Care and Use Committee. Tumor cells were harvested near confluence by incubation with 0.05% trypsin-EDTA. Cells were pelleted by centrifugation at 450×g for 5 minutes and resuspended in sterile PBS. Cells (2-3×10^6/animal) were implanted subcutaneously into the chest wall or the hind legs of the mice. Human PC-3 prostate tumors were obtained by intratibia injection of PC-3 cells into male nude mice. Human U87 glioma tumors were obtained by intracranial injection.
In vivo fluorescence imaging was accomplished by illuminating the animal with light from a laser diode (785 nm, 80 mW for IGC; 660 nm, 35 mW for Cy 5.5 dyes) expanded to an approximate 8 cm diameter circular area. The re-emitted fluorescent light was collected by an image intensifier (model FS9910C, ITT Night Vision, Roanoke, Va.) lens-coupled to a CCD camera (model CH350, Photometrics, Tucson, Ariz.). The imaging was designed so that the field of view could be varied from 3×3 cm to over 12×12 cm by varying the image distance of the 50 mm lens used to focus the image onto the photocathode of the intensifier. The lens was fitted with a holographic notch-plus filter (785 nm center wavelength for ICG and 660 nm center wavelength for Cy5.5 dyes; Kaiser Optical Systems, Inc., Ann Arbor, Mich.) and a bandpass filter (830 nm center wavelength for ICG, 710 nm center wavelength for Cy5.5 dyes) to reject back-scattered and reflected excitation photons. Image acquisition was accomplished using V++ software (Digital Optics, Auckland, New Zealand) and obtained images were stored in uncompressed tagged image file format (tiff). Data processing and analysis was accomplished using Matlab software (The Math Works, Inc., Natick, Mass.).

[3] = test system: human tumor cells; experiment: In vitro tumor cell binding study (fluorescence microscopy); type: cell-based; details: SKBr-3, HT1080, MDA-MB-435, MDA-MB-468, U87 (PC-3 and U87 for the Tyr analogue); 37° C.
Experimental: All human tumor cell-lines were obtained from American Type Culture Collection (Rockville, Md.) and were maintained at 37° C. in a humidified atmosphere containing 5% CO2 in Dulbecco's Modified Eagle's Medium/Nutrient Mixture F-12 Ham (DMEM/F12) and 10% FBS (Gibco, Grand Island, N.Y.).
Cells were seeded on cover slips in 24-well plates (Becton Dickinson Labware, Franklin Lakes, N.J.) and incubated in DMEM/F12 culture medium (0.5 ml/well) overnight. Cy5.5 and Cy5.5-HWG polypeptide imaging agents were added into each well at the indicated concentrations. For the blocking study, doxycycline was added to the culture medium followed by the addition of Cy5.5-HWG polypeptide imaging agent 1 hour later. After an incubation period of 5-60 minutes at 37° C., cells were washed twice with PBS and incubated in a solution of Sytox Green in 95% ethyl alcohol (1 μM, Molecular Probe, Eugene, Oreg.) for 15 minutes to fix and stain cell nuclei. For staining of MMP expression, cells that were pretreated with Cy5.5-HWG polypeptide and stained with Sytox Green were incubated with anti-MMP antibody (Sigma) (1 mg/ml; 1:200 dilution) for 1 hour at room temperature. The cells were then washed and incubated with Texas Red conjugated go at anti-rabbit IgG (Molecular Probe, 4 μg/ml) at room temperature for 1 hour. Cells were washed again with PBS and the cover slips were mounted for microscopic examination using a DMR microscope (Leica Microsystems, Inc., Brannockburn, Ill.). The microscope was equipped with a 75W Xenon lamp, 775 nm/845 nm, 560 nm/645 nm, and 480 nm/535 nm (Excitation/emission) filters (Chroma Technology Corp., Brattleboro, Vt.), a Hamamatsu B/W Chilled CCD camera (Hamamatsu Photonics K.K., Hamamatsu City, Japan), and Image-Pro Plus 4.5.1 software (Media Cybernetics, Silver Spring, Md.). In the multiple staining images, Cy5.5, MMPs, and Sytox Green were pseudocolored red, green, and blue, respectively.

[4] = molecular target: T1, αvβ3 integrin (on KS1767 cells) (UniProt P06756 31-1048; P05106 27-788); experiment: control in the KS1767 cell adhesion assay on vitronectin-coated wells (FIG. 31)
T1 construct: whole, on cells; also called integrin αvβ3
Experimental: A Cell Adhesion Assay was additionally performed. KS1767 cells were seeded in DMEM/F12 culture medium supplemented with 10% fetal bovine serum for 24 hr. Cells (1×10^5) with different concentrations of c(KRGDf; SEQ ID NO. 3) or Cy5.5-c(KRGDf; SEQ ID NO. 3) were added to vitronectin-coated microliter wells under serum-free conditions and incubated at 37° C. for 1 hr. After washing steps, the bound cells were stained with 5% crystal violet, followed by addition of 0.1M HCl to each well. The concentrations of crystal violet were determined by UV/V is absorption at 627 nm. $IC50$ values were estimated from the dose-activity curves.

[5] = molecular target: T2, pre-activated MMP-2 (gelatinase A), Chemicon assay (UniProt P08253 110-660, limits assumed); experiment: cell-based or functional assay
T2 sequence (looked up): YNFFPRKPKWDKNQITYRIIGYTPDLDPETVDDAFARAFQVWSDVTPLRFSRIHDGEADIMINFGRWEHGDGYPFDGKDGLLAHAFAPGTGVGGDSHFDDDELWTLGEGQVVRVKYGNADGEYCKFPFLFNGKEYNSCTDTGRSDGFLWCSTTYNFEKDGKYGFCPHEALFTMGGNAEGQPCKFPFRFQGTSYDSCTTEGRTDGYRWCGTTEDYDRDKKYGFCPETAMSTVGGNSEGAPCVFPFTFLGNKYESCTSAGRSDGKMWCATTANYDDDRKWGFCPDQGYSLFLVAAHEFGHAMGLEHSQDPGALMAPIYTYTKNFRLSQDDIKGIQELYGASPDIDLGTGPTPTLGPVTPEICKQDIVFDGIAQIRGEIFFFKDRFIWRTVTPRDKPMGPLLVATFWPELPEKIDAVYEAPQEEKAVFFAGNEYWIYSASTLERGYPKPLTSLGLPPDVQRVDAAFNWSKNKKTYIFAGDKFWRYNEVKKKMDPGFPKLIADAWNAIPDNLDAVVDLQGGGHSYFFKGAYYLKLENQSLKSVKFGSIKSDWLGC

T1 sequence (P06756 31-1048, chain 1 of 2): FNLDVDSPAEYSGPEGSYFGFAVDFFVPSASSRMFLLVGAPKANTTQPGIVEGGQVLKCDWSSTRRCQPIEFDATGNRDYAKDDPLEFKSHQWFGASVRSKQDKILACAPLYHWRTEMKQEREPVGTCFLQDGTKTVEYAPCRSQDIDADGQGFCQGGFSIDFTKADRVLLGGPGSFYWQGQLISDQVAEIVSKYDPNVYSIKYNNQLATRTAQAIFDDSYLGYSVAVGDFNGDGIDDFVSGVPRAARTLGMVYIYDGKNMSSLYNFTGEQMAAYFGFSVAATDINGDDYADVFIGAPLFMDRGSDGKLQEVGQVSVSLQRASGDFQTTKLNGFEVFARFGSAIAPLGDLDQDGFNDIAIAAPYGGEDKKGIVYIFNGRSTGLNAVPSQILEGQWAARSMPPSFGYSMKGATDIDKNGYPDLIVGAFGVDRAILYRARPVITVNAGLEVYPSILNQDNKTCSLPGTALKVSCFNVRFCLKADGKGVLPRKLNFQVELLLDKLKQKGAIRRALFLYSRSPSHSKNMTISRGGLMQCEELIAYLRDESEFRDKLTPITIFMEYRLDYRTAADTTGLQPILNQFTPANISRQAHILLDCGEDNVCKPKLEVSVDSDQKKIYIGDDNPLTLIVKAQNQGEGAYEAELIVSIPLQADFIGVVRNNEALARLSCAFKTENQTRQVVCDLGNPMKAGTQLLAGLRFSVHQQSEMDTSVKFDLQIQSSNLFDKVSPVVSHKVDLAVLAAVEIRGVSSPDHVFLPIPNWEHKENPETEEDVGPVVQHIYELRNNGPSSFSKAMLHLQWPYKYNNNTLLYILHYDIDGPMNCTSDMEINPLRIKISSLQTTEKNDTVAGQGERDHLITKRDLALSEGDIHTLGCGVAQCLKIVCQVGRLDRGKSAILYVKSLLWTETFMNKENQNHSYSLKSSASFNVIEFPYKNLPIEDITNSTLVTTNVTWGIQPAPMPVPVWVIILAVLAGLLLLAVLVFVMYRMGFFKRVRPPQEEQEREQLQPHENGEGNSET
T1 sequence (P05106 27-788, chain 2 of 2): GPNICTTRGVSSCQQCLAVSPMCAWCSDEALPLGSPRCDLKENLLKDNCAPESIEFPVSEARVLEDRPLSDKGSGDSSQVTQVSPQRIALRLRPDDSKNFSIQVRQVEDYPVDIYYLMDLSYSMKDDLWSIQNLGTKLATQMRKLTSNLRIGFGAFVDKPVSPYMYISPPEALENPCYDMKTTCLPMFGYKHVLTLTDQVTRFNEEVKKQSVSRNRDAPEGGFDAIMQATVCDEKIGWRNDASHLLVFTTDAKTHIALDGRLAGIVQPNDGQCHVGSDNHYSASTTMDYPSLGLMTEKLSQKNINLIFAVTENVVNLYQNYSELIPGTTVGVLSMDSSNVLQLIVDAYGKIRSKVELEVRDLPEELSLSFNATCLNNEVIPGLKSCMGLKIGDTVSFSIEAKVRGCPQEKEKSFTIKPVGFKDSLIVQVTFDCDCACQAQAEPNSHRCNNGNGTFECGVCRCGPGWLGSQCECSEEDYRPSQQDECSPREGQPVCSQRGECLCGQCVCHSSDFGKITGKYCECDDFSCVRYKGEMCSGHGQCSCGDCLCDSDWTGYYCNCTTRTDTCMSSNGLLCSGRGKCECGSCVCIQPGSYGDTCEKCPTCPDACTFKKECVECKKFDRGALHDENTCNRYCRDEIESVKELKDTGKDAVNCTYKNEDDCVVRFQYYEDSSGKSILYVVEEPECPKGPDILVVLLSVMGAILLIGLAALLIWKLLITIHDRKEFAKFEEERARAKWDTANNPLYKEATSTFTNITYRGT

For Cy5.5 [reference compound], the “Tumor targeting / uptake in NIR image” value [1] was “almost no optical activity uptake”, the “Fluorescent signal in tumor” value [2] was “minimal fluorescence” and the “Binding to tumor cells” value [3] was “did not display significant binding”.

Ac-ACNGRCG (bridge 2-6; also: kind of ring closure not given here, also called control cyclic pentapeptide) [Ac-A-c(CNGRC)-G]: no binding [4].

B1: c(KAHWGFTLD)NH2 (SEQ ID NO. 10) (side chain-to-side chain linkage) (peptide)
peptide: KAHWGFTLD
HELM: PEPTIDE1{K.A.H.W.G.F.T.L.D.[am]}$PEPTIDE1,PEPTIDE1,1:R3-9:R3$$$V2.0; N-terminus assumed
SMILES: CC(C)C[C@@H]1NC(=O)[C@H]([C@@H](C)O)NC(=O)[C@H](Cc2ccccc2)NC(=O)CNC(=O)[C@H](Cc2c[nH]c3ccccc23)NC(=O)[C@H](Cc2c[nH]cn2)NC(=O)[C@H](C)NC(=O)[C@@H](N)CCCCNC(=O)C[C@@H](C(N)=O)NC1=O
With B1 the “IC50 of MMP-2 enzyme inhibition (biotinylated gelatinase substrate cleavage assay)” value [5] was 5.5 µM.
